# Experimental data as given in US20240425492A1, “POLYMORPHS AS ERBB INHIBITORS” (Black Diamond Therapeutics, Inc., priority 2021, published 2024).
# Like-named read-outs stand apart in the source and are kept apart here.
# Columns and labels:
# [1] = Hygroscopicity by DVS at 25° C.; assay type: physicochemical; conditions: for Desorp. (%) / Sorp. (%): DVS 25° C.
# Description: Dynamic Vapor Sorption (DVS): DVS analysis was performed using Intrinsic. Analysis was performed using parameters as set forth below.
# The hygroscopicity for Form C and Form F was examined. See, e.g., Table E.
# [2] = Variable relative humidity XRPD experiments for Form F; assay type: physicochemical
# Source text: Protocol 9: Variable relative humidity experiment. Form F was investigated by variable humidity XRPD experiments. […] Form L reverted to Form F in >10% RH. […] See Example 8 for more details.
# Form F was investigated by variable humidity XRPD experiments.
# physchem = conditions: 37 °C, thermodynamic from solid
# Description: (§1) 2.01 mg of the free base Form C (equal to 2 mg free base after correction for water content) was weighed into 2 mL vial. 2.09 mg of the free base Form F (equal to 2 mg free base after correction for water content) was weighed into a 2 mL vial. I mL of aqueous media was added, respectively. These suspensions were stirred at 37° C. at a rate of 400 rpm. These suspensions were taken out after 2 h and 24 h, and then centrifuged at 14,000 rpm for 5 minutes. The supernatants were analyzed by HPLC. The pH of the supernatants were tested.
# [3] = Bulk stability under accelerated storage conditions (XRPD and HPLC); conditions: Solid state
# Source text: Solids obtained after bulk stability study were characterized by XRPD and HPLC.
# [4] = Solubility study in aqueous media at 37° C. (HPLC of supernatants, pH)
# Description: as §1
# [5] = 25° C./92.5% RH in an open vial, 2 weeks
# [6] = 25° C./92.5% RH in an open vial, 4 weeks
# [7] = 40° C./75% RH in an open vial, 2 weeks
# [8] = 40° C./75% RH in an open vial, 4 week
# [9] = 60° C., tight container, 2 weeks
# [10] = 60° C., tight container, 4 weeks
# [11] = pH 6.8 (50 mM) phosphate buffer, 37° C.
compound,measurement,setting,value
CN1C[C@H]2C[C@@]2(C#Cc2cc3ncnc(Nc4cccc(Cl)c4F)c3cc2NC(=O)/C=C/CN2CCOCC2)C1 [Form F],DVS water uptake from 40% RH to 70% RH,"[1]; 25° C., dm/dt = 0.002%",1.1% water uptake from 40% RH to 70% RH
same,DVS water uptake from 40% RH to 95% RH,"[1]; 25° C., dm/dt = 0.002%",10.2% water uptake from 40% RH to 95% RH
same,Desorp. (%),"[1]; Relative Humidity 0%, first Desorp.",0.0%
same,Sorp. (%),"[1]; Relative Humidity 0%, second Sorp.",0.0%
same,Desorp. (%),"[1]; Relative Humidity 10%, first Desorp.",1.4%
same,Sorp. (%),"[1]; Relative Humidity 10%, second Sorp.",1.3%
same,Desorp. (%),"[1]; Relative Humidity 20%, first Desorp.",1.9%
same,Sorp. (%),"[1]; Relative Humidity 20%, second Sorp.",1.7%
same,Desorp. (%),"[1]; Relative Humidity 30%, first Desorp.",3.6%
same,Sorp. (%),"[1]; Relative Humidity 30%, second Sorp.",2.1%
same,Desorp. (%),"[1]; Relative Humidity 40%, first Desorp.",6.3%
same,Sorp. (%),"[1]; Relative Humidity 40%, first Sorp.",2.5%
same,Desorp. (%),"[1]; Relative Humidity 40%, second Desorp.",6.4%
same,Sorp. (%),"[1]; Relative Humidity 40%, second Sorp.",2.8%
same,Desorp. (%),"[1]; Relative Humidity 50%, first Desorp.",8.0%
same,Sorp. (%),"[1]; Relative Humidity 50%, first Sorp.",2.8%
same,Desorp. (%),"[1]; Relative Humidity 50%, second Desorp.",7.9%
same,Sorp. (%),"[1]; Relative Humidity 50%, second Sorp.",3.2%
same,Desorp. (%),"[1]; Relative Humidity 60%, first Desorp.",9.4%
same,Sorp. (%),"[1]; Relative Humidity 60%, first Sorp.",3.2%
same,Desorp. (%),"[1]; Relative Humidity 60%, second Desorp.",9.3%
same,Sorp. (%),"[1]; Relative Humidity 60%, second Sorp.",3.7%
same,Desorp. (%),"[1]; Relative Humidity 70%, first Desorp.",10.2%
same,Sorp. (%),"[1]; Relative Humidity 70%, first Sorp.",3.6%
same,Desorp. (%),"[1]; Relative Humidity 70%, second Desorp.",10.0%
same,Sorp. (%),"[1]; Relative Humidity 70%, second Sorp.",4.2%
same,Desorp. (%),"[1]; Relative Humidity 80%, first Desorp.",11.0%
same,Sorp. (%),"[1]; Relative Humidity 80%, first Sorp.",10.4%
same,Desorp. (%),"[1]; Relative Humidity 80%, second Desorp.",10.8%
same,Sorp. (%),"[1]; Relative Humidity 80%, second Sorp.",10.4%
same,Desorp. (%),"[1]; Relative Humidity 90%, first Desorp.",11.8%
same,Sorp. (%),"[1]; Relative Humidity 90%, first Sorp.",11.6%
same,Desorp. (%),"[1]; Relative Humidity 90%, second Desorp.",11.6%
same,Sorp. (%),"[1]; Relative Humidity 90%, second Sorp.",11.4%
same,Desorp. (%),"[1]; Relative Humidity 95%, first Desorp.",12.9%
same,Sorp. (%),"[1]; Relative Humidity 95%, first Sorp.",12.7%
same,Desorp. (%),"[1]; Relative Humidity 95%, second Desorp.",12.2%
same,Sorp. (%),"[1]; Relative Humidity 95%, second Sorp.",12.2%
same,XRPD after DVS test,[1]; DVS at 25° C.,No form change
same,form conversion in variable humidity XRPD,[2]; 0% RH,"converted to a new crystalline form, assigned as Form L"
same,XRPD (form observed),"[2]; 0% RH (12 h), step 8 of humidity sequence",Form L (Only stable in low humidity)
same,XRPD (form observed),"[2]; 0% RH (24 h), step 9 of humidity sequence",Form L (Only stable in low humidity)
same,XRPD (form observed),"[2]; 10% RH, step 7 of humidity sequence",Form F
same,XRPD (form observed),"[2]; 10% RH, step 10 of humidity sequence",Form F
same,XRPD (form observed),"[2]; 40% RH, step 1 of humidity sequence",Form F
same,XRPD (form observed),"[2]; 40% RH, step 6 of humidity sequence",Form F
same,XRPD (form observed),"[2]; 40% RH, step 11 of humidity sequence",Form F
same,XRPD (form observed),"[2]; 70% RH, step 2 of humidity sequence",Form F
same,XRPD (form observed),"[2]; 70% RH, step 5 of humidity sequence",Form F
same,XRPD (form observed),"[2]; 90% RH (3 h), step 3 of humidity sequence",Form F
same,XRPD (form observed),"[2]; 90% RH (6 h), step 4 of humidity sequence",Form F
same,2 h Solubility,pH 5,Degradation
same,24 h Solubility,pH 5,Degradation
same,2 h Solubility,pH 6.5,Degradation
same,24 h Solubility,pH 6.5,Degradation
same,solubility,"physchem; pH 1, simulated gastric fluid",> 2000 µg/mL
same,solubility at 2 h,"physchem; pH 1, simulated gastric fluid",> 2000 µg/mL
same,solubility at 24 h,"physchem; pH 1, simulated gastric fluid",> 2000 µg/mL
same,solubility,"physchem; pH 2, simulated gastric fluid",> 2000 µg/mL
same,solubility at 2 h,"physchem; pH 2, simulated gastric fluid",> 2000 µg/mL
same,solubility at 24 h,"physchem; pH 2, simulated gastric fluid",> 2000 µg/mL
same,solubility,"physchem; pH 4.5, aqueous buffer",> 2000 µg/mL
same,solubility at 2 h,"physchem; pH 4.5, aqueous buffer",> 2000 µg/mL
same,solubility at 24 h,"physchem; pH 4.5, aqueous buffer",> 2000 µg/mL
same,solubility,"physchem; pH 6.8, aqueous buffer",~20 µg/mL
same,solubility at 2 h,"physchem; pH 6.8, aqueous buffer",20.7 µg/mL
same,solubility at 24 h,"physchem; pH 6.8, aqueous buffer",19.8 µg/mL
same,solubility,physchem; water,< 10 µg/mL
same,solubility at 2 h,physchem; water,7 µg/mL
same,solubility at 24 h,physchem; water,7.5 µg/mL
same,Bulk (XRPD),[3]; [5],No form change
same,"Purity, Bulk (HPLC)",[3]; [5],95.5%
same,Bulk (XRPD),[3]; [6],No form change
same,"Purity, Bulk (HPLC)",[3]; [6],94.1%
same,Bulk (XRPD),[3]; [7],No form change
same,"Purity, Bulk (HPLC)",[3]; [7],94.3%
same,Bulk (XRPD),[3]; [8],No form change
same,"Purity, Bulk (HPLC)",[3]; [8],91.6%
same,Bulk (XRPD),[3]; [9],No form change
same,"Purity, Bulk (HPLC)",[3]; [9],90.1%
same,Bulk (XRPD),[3]; [10],No form change
same,"Purity, Bulk (HPLC)",[3]; [10],82.6%
same,24 h (pH) of supernatant,"[4]; SGF, pH 2.0, 37° C.",pH 3.5
same,XRPD of residual solid,"[4]; Water, 37° C.",Form F
same,24 h (pH) of supernatant,"[4]; Water, 37° C.",pH 7.0
same,24 h (pH) of supernatant,"[4]; pH 1.0 (0.1N HCl), 37° C.",pH 0.9
same,24 h (pH) of supernatant,"[4]; pH 4.5 (50 mM) acetate buffer, 37° C.",pH 4.6
same,XRPD of residual solid,[4]; [11],Form F
same,24 h (pH) of supernatant,[4]; [11],pH 6.7
